Data reported in patent publication US6706740B2, “Fungicidal heterocyclic aromatic amides and their compositions, methods of use and preparation” (Dow AgroSciences LLC, priority 1999, dated 2004).

Columns and labels:
[1] = test system: Magnaporthe grisea (Pyricularia oryzae—PYRIOR); experiment: microbe, parasite or virus in culture; type: cell-based; details: Pyricularia oryzae, read-out: PYRIOR in vitro Growth Inhibition
[2] = test system: Rhizoctonia solani (RHIZSO); experiment: microbe, parasite or virus in culture; type: cell-based; details: Rhizoctonia solani, read-out: RHIZSO in vitro Growth Inhibition
[3] = test system: Mycosphaerella graminicola (Septoria tritici—SEPTTR); experiment: In vitro fungal growth inhibition, Mycosphaerella graminicola (SEPTTR); type: cell-based; details: Zymoseptoria tritici; 25 ppm in growth medium; read-out: SEPTTR in vitro Growth Inhibition
[4] = test system: Stagonospora nodorum (Leptosphaeria nodorum—LEPTNO); experiment: In vitro fungal growth inhibition, Stagonospora nodorum (LEPTNO); type: cell-based; details: Leptosphaeria; 25 ppm in growth medium; read-out: LEPTNO in vitro Growth Inhibition
[5] = test system: Ustilago maydis (USTIMA); experiment: microbe, parasite or virus in culture; type: cell-based; details: Mycosarcoma maydis, read-out: USTIMA in vitro Growth Inhibition
[6] = test system: Phytophthora infestans (PHYTIN); experiment: microbe, parasite or virus in culture; type: cell-based; details: Phytophthora infestans, read-out: PHYTIN in vitro Growth Inhibition
[7] = test system: Phytophthora infestans—PHYTIN; experiment: whole plant or invertebrate; type: in vivo; details: Phytophthora, in Solanum lycopersicum, 24 h, read-out: PHYTIN in vivo 1 Day Protectant
[8] = test system: Puccinia recondita—PUCCRT; experiment: Brown Rust of Wheat, in vivo whole plant, 24 Hour Protectant; details: Puccinia; 100 ppm spray, 24 hour protectant, wheat; control of fungal infection vs untreated plants; read-out: PUCCRT in vivo 1 Day Protectant
[9] = test system: Erysiphe graminis—ERYSGT; experiment: Powdery Mildew of Wheat, in vivo whole plant, 24 Hour Protectant; details: Erysiphe; 100 ppm spray, 24 hour protectant, wheat; control of fungal infection vs untreated plants; read-out: ERYSGT in vivo 1 Day Protectant
[10] = test system: Septoria tritici—SEPTTR; experiment: Leaf Blotch of Wheat, in vivo whole plant, 24 Hour Protectant; details: 100 ppm spray, 24 hour protectant, wheat, control of fungal infection vs untreated plants; for pest or weed control at 100 ppm: Zymoseptoria tritici, 24 h, read-out: SEPTTR in vivo 1 Day Protectant
[11] = test system: Leptosphaeria nodorum—LEPTNO; experiment: Glume Blotch of Wheat, in vivo whole plant, 24 Hour Protectant; details: Leptosphaeria; 100 ppm spray, 24 hour protectant, wheat; control of fungal infection vs untreated plants; read-out: LEPTNO in vivo 1 Day Protectant

SMILES	inhibition at 25 ppm [1] [%]	inhibition at 25 ppm [2] [%]	inhibition at 25 ppm [3] [%]	inhibition at 25 ppm [4] [%]	inhibition at 25 ppm [5] [%]	inhibition at 25 ppm [6] [%]	pest or weed control at 100 ppm [7] [%]	pest or weed control at 100 ppm [8] [%]	pest or weed control at 100 ppm [9] [%]	pest or weed control at 100 ppm [10] [%]	pest or weed control at 100 ppm [11] [%]	SEPTTR in vivo 1 Day Protectant [10]
CC(NC(=O)c1ncccc1O)c1ccc(Cl)cc1 (centres unmarked) [Compound 230]	> 80	< 80	> 80	> 80	< 80	> 80	< 25	< 25	< 25	25 to 74	25 to 74	
C[C@@H](NC(=O)c1ncccc1O)c1cccc2ccccc12 [Compound 231]	> 80	< 80	< 80	< 80	< 80	< 80	< 25	< 25	< 25	< 25	< 25	
C[C@H](NC(=O)c1ncccc1O)c1cccc2ccccc12 [Compound 232]	> 80	< 80	> 80	< 80	< 80	< 80	< 25	< 25	25 to 74	< 25	< 25	
O=C(NCCc1ccc(Cl)cc1)c1ncccc1O [Compound 233, N-(2-(4-CHLOROPHENYL)ETHYL)-3-HYDROXYPYRIDINE-2-CARBOXAMIDE]	> 80	< 80	> 80	> 80	> 80	> 80	< 25	< 25	< 25	25 to 74	< 25	
O=C(NCCCCc1ccccc1)c1ncccc1O [Compound 234]	> 80	< 80	< 80	> 80	< 80	> 80	< 25	< 25	< 25	25 to 74	< 25	
O=C(Nc1nccs1)c1ncccc1O [Compound 235]	> 80	> 80	> 80	> 80	> 80	> 80	< 25	< 25	< 25	< 25	< 25	
COc1ccnc(C(=O)NCC#CCCl)c1O [Compound 239]	< 80	< 80	< 80	< 80	< 80	< 80	< 25	25 to 74	< 25	25 to 74	25 to 74	
COc1ccnc(C(=O)NCC#Cc2ccccc2)c1O [Compound 240]	< 80	< 80	< 80	< 80	< 80	< 80	< 25	< 25	< 25		25 to 74	+ +
COc1ccnc(C(=O)NCC2C(C=C(C)C)C2(C)C)c1O (centres unmarked) [Compound 241]	< 80	> 80	< 80	< 80	< 80	> 80	< 25	25 to 74	< 25	25 to 74	25 to 74	
COc1ccnc(C(=O)NC/C=C(\C)CCC=C(C)C)c1O [Compound 242]	> 80	> 80	> 80	> 80	> 80	> 80	< 25	< 25	< 25	25 to 74	< 25	
